Laboratory results from PubChem BioAssay AID220 (DTP/NCI, 2004).
Where “and” joins values, the source holds several entries; their conditions need not be identical. Identical values can stand only once. Inconclusive results are not listed.

Tested on: CD8F1 mice, subcutaneous mammary adenocarcinoma, T/C%
Experiment: NCI In Vivo Anticancer Drug Screen. Data for tumor model Mammary Adenocarcinoma CD8F1 (subcutaneous) in CD8F1
Conditions: higher = larger tumour
Summary of the method: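 Transplantable tumors were established in mice, animals were dosed with compound or vehicle, and survival or tumor size was then measured in both groups. The treated result was divided by the control result.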

[1] = endpoint: median tumor weight change, dose: 125.0 mg/kg/injection, schedule: Q01DX001 (ip), vehicle: saline
[2] = endpoint: median tumor weight change, dose: 250.0 mg/kg/injection, schedule: Q01DX001 (ip), vehicle: saline
[3] = endpoint: median tumor weight (est.), dose: 25.0 mg/kg/injection, schedule: Q07DX005 (ip), vehicle: saline with Tween-80
[4] = endpoint: median tumor weight (est.), dose: 50.0 mg/kg/injection, schedule: Q07DX005 (ip), vehicle: saline with Tween-80
[5] = endpoint: median tumor weight (est.), dose: 100.0 mg/kg/injection, schedule: Q07DX005 (ip), vehicle: saline with Tween-80
[6] = endpoint: median tumor weight (est.), dose: 6.25 mg/kg/injection, schedule: Q07DX005 (ip), vehicle: Klucel (hydroxypropylcellulose) (HPC)
[7] = endpoint: median tumor weight (est.), dose: 6.25 mg/kg/injection, schedule: Q07DX005 (ip), vehicle: saline
[8] = endpoint: median tumor weight (est.), dose: 12.5 mg/kg/injection, schedule: Q07DX005 (ip), vehicle: saline
[9] = endpoint: median tumor weight (est.), dose: 25.0 mg/kg/injection, schedule: Q07DX005 (ip), vehicle: saline
[10] = endpoint: median tumor weight (est.), dose: 50.0 mg/kg/injection, schedule: Q07DX005 (ip), vehicle: Klucel (hydroxypropylcellulose) (HPC)
[11] = endpoint: median tumor weight (est.), dose: 50.0 mg/kg/injection, schedule: Q07DX005 (ip), vehicle: saline
[12] = endpoint: median tumor weight (est.), dose: 100.0 mg/kg/injection, schedule: Q07DX005 (ip), vehicle: Klucel (hydroxypropylcellulose) (HPC)
[13] = endpoint: median tumor weight (est.), dose: 100.0 mg/kg/injection, schedule: Q07DX005 (ip), vehicle: saline
[14] = endpoint: median tumor weight (est.), dose: 200.0 mg/kg/injection, schedule: Q07DX005 (ip), vehicle: Klucel (hydroxypropylcellulose) (HPC)
[15] = endpoint: median tumor weight (est.), dose: 12.5 mg/kg/injection, schedule: Q07DX005 (ip), vehicle: Klucel (hydroxypropylcellulose) (HPC)
[16] = endpoint: median tumor weight (est.), dose: 25.0 mg/kg/injection, schedule: Q07DX005 (ip), vehicle: Klucel (hydroxypropylcellulose) (HPC)
[17] = endpoint: median tumor weight change, dose: 62.5 mg/kg/injection, schedule: Q01DX001 (ip), vehicle: saline with Tween-80
[18] = endpoint: median tumor weight change, dose: 125.0 mg/kg/injection, schedule: Q01DX001 (ip), vehicle: saline with Tween-80
[19] = endpoint: median tumor weight change, dose: 125.0 mg/kg/injection, schedule: Q01DX001 (ip), vehicle: Klucel (hydroxypropylcellulose) (HPC)
[20] = endpoint: median tumor weight change, dose: 250.0 mg/kg/injection, schedule: Q01DX001 (ip), vehicle: Klucel (hydroxypropylcellulose) (HPC)

`N=C1CCCS1` was tested, and the T/C [1] was 93 % of control and the T/C [2] was 89 % of control.
With `CC(=O)Nc1ccc(O)c(O)c1` the T/C [3] was 107 % of control, the T/C [4] was 81 % of control and the T/C [5] was 79 % of control. For the same compound, the T/C (endpoint: median tumor weight (est.), dose: 200.0 mg/kg/injection, schedule: Q07DX005 (ip), vehicle: saline with Tween-80) was 76 % of control, the T/C (endpoint: median tumor weight (est.), dose: 400.0 mg/kg/injection, schedule: Q07DX005 (ip), vehicle: saline with Tween-80) was 114 % of control and the T/C (endpoint: median tumor weight (est.), dose: 800.0 mg/kg/injection, schedule: Q07DX005 (ip), vehicle: saline with Tween-80) was 159 % of control.
With `COc1cc2cc(c1Cl)N(C)C(=O)CC(OC(=O)CC(C)C)C1(C)OC1C(C)C1CC(O)(NC(=O)O1)C(OC)/C=C/C=C(C)C2` (configuration not stated) the T/C (endpoint: median tumor weight (est.), dose: 18.7 micrograms/kg/injection, schedule: Q07DX005 (ip), vehicle: saline + alcohol) was 76 % of control, the T/C (endpoint: median tumor weight (est.), dose: 37.5 micrograms/kg/injection, schedule: Q07DX005 (ip), vehicle: saline + alcohol) was 80 % of control and the T/C (endpoint: median tumor weight (est.), dose: 75.0 micrograms/kg/injection, schedule: Q07DX005 (ip), vehicle: saline + alcohol) was 85 % of control.
With `[Cl][Pt+2][Cl].[NH-]C1CCC1.[NH2-]` the T/C (endpoint: median tumor weight change, dose: 6.25 mg/kg/injection, schedule: Q01DX001 (ip), vehicle: suspension in saline) was 96 % of control and the T/C (endpoint: median tumor weight change, dose: 12.5 mg/kg/injection, schedule: Q01DX001 (ip), vehicle: suspension in saline) was 99 % of control.
With `Brc1ccc(C[N+]23CN4CN(CN(C4)C2)C3)cc1` the T/C [3] was 90 % of control, the T/C [4] was 96 % of control and the T/C [5] was 180 % of control.
In the case of `CC1(C)CC(=O)C(CSC(=O)c2ccccc2)C(=O)C1`, the T/C [6] is reported as 182 % of control, the T/C [7] is reported as 55 % of control and the T/C [8] is reported as 102 % of control. For the same compound, the T/C [9] was 158 % of control, the T/C [10] was 39 % of control and the T/C [11] was 73 % of control. The T/C [12] was 187 % of control, the T/C [13] was 64 % of control and the T/C [14] was 57 % of control.
`Cc1ccc2c(ccc(CC(=S)[S-])[n+]2C)c1` was tested, and the T/C [15] was 72 % of control and 97 % of control, the T/C [16] was 90 % of control and the T/C [10] was 102 % of control and 121 % of control. For the same compound, the T/C [12] was 46 % of control and 71 % of control and the T/C [14] was 32 % of control.
In the case of `COC1=C(C)C(=O)C2=C(C1=O)C(CO)N1C(C#N)C3CC4C(C1C2N1CCOC41)N3C` (configuration not stated), the T/C (endpoint: median tumor weight change, dose: 0.62 mg/kg/injection, schedule: Q01DX001 (ip), vehicle: saline + alcohol) is reported as 120 % of control and the T/C (endpoint: median tumor weight change, dose: 1.25 mg/kg/injection, schedule: Q01DX001 (ip), vehicle: saline + alcohol) is reported as 98 % of control and 107 % of control and 116 % of control.
With `CC1=C[C@@]23[C@H](C=C(C(=O)O)[C@@H]2COC(=O)[C@]32CO2)[C@@H]1C` the T/C (endpoint: median tumor weight change, dose: 0.31 mg/kg/injection, schedule: Q01DX001 (ip), vehicle: saline) was 116 % of control, the T/C (endpoint: median tumor weight change, dose: 0.62 mg/kg/injection, schedule: Q01DX001 (ip), vehicle: saline) was 115 % of control and the T/C (endpoint: median tumor weight change, dose: 1.25 mg/kg/injection, schedule: Q01DX001 (ip), vehicle: saline) was 98 % of control. The T/C (endpoint: median tumor weight change, dose: 2.5 mg/kg/injection, schedule: Q01DX001 (ip), vehicle: saline) was 85 % of control and the T/C (endpoint: median tumor weight change, dose: 5.0 mg/kg/injection, schedule: Q01DX001 (ip), vehicle: saline) was 100 % of control.
In the case of `CN=C(N)N/N=C(\C)c1ccc2oc3ccc(/C(C)=N/NC(N)=NC)cc3c2c1`, the T/C [17] is reported as 87 % of control and the T/C [18] is reported as 63 % of control.
With `O=C(O[Si](Cc1ccccc1)(Cc1ccccc1)Cc1ccccc1)N(CCCl)CCCl` the T/C (endpoint: median tumor weight change, dose: 62.0 mg/kg/injection, schedule: Q01DX001 (ip), vehicle: saline with Tween-80) was 159 % of control and the T/C [17] was 98 % of control and 109 % of control.
For `CC[C@](C)(O)C(=O)O[C@H]1C(=O)O[C@@H]2C[C@H]3C(C)=CC(=O)[C@@H](O)[C@]3(C)[C@H]3[C@@]4(O)OC[C@]32[C@@H]1[C@@H](C)[C@H]4O`, the T/C (endpoint: median tumor weight (est.), dose: 0.06 mg/kg/injection, schedule: Q07DX005 (ip), vehicle: Klucel (hydroxypropylcellulose) (HPC)) was 116 % of control, the T/C (endpoint: median tumor weight (est.), dose: 0.12 mg/kg/injection, schedule: Q07DX005 (ip), vehicle: Klucel (hydroxypropylcellulose) (HPC)) was 108 % of control and the T/C (endpoint: median tumor weight (est.), dose: 0.5 mg/kg/injection, schedule: Q07DX005 (ip), vehicle: Klucel (hydroxypropylcellulose) (HPC)) was 73 % of control. For the same compound, the T/C (endpoint: median tumor weight change, dose: 1.0 mg/kg/injection, schedule: Q01DX001 (ip), vehicle: Klucel (hydroxypropylcellulose) (HPC)) was 79 % of control.
For `COc1ccc2c(c1)CCC(c1ccccc1)=C2c1ccc(OCCN2CCCC2)cc1`, the T/C [6] was 119 % of control, the T/C [15] was 99 % of control and 103 % of control and the T/C [16] was 92 % of control and 111 % of control. For the same compound, the T/C [10] was 77 % of control and 80 % of control and the T/C [12] was 75 % of control and 95 % of control.
With `CC1(C)COCN1COC1CCCCC1` the T/C [18] was 79 % of control.
In the case of `C=C(OP(=O)(OC)OC)Sc1ccccc1C`, the T/C (endpoint: median tumor weight change, dose: 0.38 mg/kg/injection, schedule: Q01DX001 (ip), vehicle: Klucel (hydroxypropylcellulose) (HPC)) is reported as 80 % of control, the T/C (endpoint: median tumor weight change, dose: 0.75 mg/kg/injection, schedule: Q01DX001 (ip), vehicle: Klucel (hydroxypropylcellulose) (HPC)) is reported as 96 % of control and the T/C (endpoint: median tumor weight change, dose: 1.5 mg/kg/injection, schedule: Q01DX001 (ip), vehicle: Klucel (hydroxypropylcellulose) (HPC)) is reported as 88 % of control.
For `CO[C@@]12[C@H](COC(N)=O)C3=C(C(=O)C(C)=C(N)C3=O)N1C[C@@H]1N[C@@H]12`, the T/C (endpoint: median tumor weight (est.), dose: 0.37 mg/kg/injection, schedule: Q07DX006 (ip), vehicle: saline) was 63 % of control, the T/C (endpoint: median tumor weight (est.), dose: 0.75 mg/kg/injection, schedule: Q07DX006 (ip), vehicle: saline) was 47 % of control and the T/C (endpoint: median tumor weight (est.), dose: 1.5 mg/kg/injection, schedule: Q07DX006 (ip), vehicle: saline) was 27 % of control.
With `COc1c(CNC(=O)CCl)cc2[nH]c(C)cc2c1CNC(=O)CCl` the T/C [6] was 92 % of control, the T/C [15] was 67 % of control and the T/C [10] was 97 % of control. The T/C [12] was 55 % of control, the T/C [14] was 57 % of control and the T/C [19] was 106 % of control. The T/C [20] was 108 % of control.
In the case of `CC[C@@]1(O)C(=O)OCc2c1cc1n(c2=O)Cc2cc3ccccc3nc2-1`, the T/C (endpoint: median tumor weight change, dose: 1.5 mg/kg/injection, schedule: Q01DX001 (ip), vehicle: saline with Tween-80) is reported as 64 % of control, the T/C (endpoint: median tumor weight change, dose: 6.0 mg/kg/injection, schedule: Q01DX001 (ip), vehicle: saline with Tween-80) is reported as 56 % of control and 73 % of control and the T/C (endpoint: median tumor weight change, dose: 12.0 mg/kg/injection, schedule: Q01DX001 (ip), vehicle: saline with Tween-80) is reported as 62 % of control. For the same compound, the T/C (endpoint: median tumor weight change, dose: 24.0 mg/kg/injection, schedule: Q01DX001 (ip), vehicle: saline with Tween-80) was 5 % of control and 10 % of control.
For `COC(=O)Nc1nc2ccc(SC)cc2c(=O)[nH]1`, the T/C [19] was 79 % of control, the T/C [20] was 61 % of control and the T/C (endpoint: median tumor weight change, dose: 500.0 mg/kg/injection, schedule: Q01DX001 (ip), vehicle: Klucel (hydroxypropylcellulose) (HPC)) was 57 % of control.
`CCCCCCCCCCCCCCCCP(=O)(OCCOCCCCCC)OCCOCCCCCC` was tested, and the T/C (endpoint: median tumor weight (est.), dose: 3.12 mg/kg/injection, schedule: Q07DX005 (ip), vehicle: saline) was 118 % of control, the T/C [7] was 156 % of control and the T/C [8] was 85 % of control. For the same compound, the T/C [9] was 72 % of control, the T/C [11] was 94 % of control and the T/C [13] was 55 % of control.
`Cn1c(=O)[nH]c2nncnc2c1=O` was tested, and the T/C (endpoint: median tumor weight change, dose: 15.62 mg/kg/injection, schedule: Q01DX001 (ip), vehicle: other) was 89 % of control, the T/C (endpoint: median tumor weight change, dose: 31.25 mg/kg/injection, schedule: Q01DX001 (ip), vehicle: other) was 88 % of control and the T/C (endpoint: median tumor weight change, dose: 62.5 mg/kg/injection, schedule: Q01DX001 (ip), vehicle: other) was 57 % of control.
In the case of `CONc1ccn(C2OC(CO)C(O)C2O)c(=O)n1` (configuration not stated), the T/C [1] is reported as 87 % of control and the T/C [2] is reported as 103 % of control.
`CCN(CC)c1ccc2[nH]c3c(C(N)=O)cc(=O)c(=O)c=3oc2c1` was tested, and the T/C [17] was 92 % of control, the T/C (endpoint: median tumor weight change, dose: 250.0 mg/kg/injection, schedule: Q01DX001 (ip), vehicle: saline with Tween-80) was 121 % of control and the T/C (endpoint: median tumor weight change, dose: 500.0 mg/kg/injection, schedule: Q01DX001 (ip), vehicle: saline with Tween-80) was 28 % of control.
With `O=C(NO)c1cc(O)c(O)c(O)c1` the T/C (endpoint: median tumor weight change, dose: 300.0 mg/kg/injection, schedule: Q01DX001 (ip), vehicle: water) was 124 % of control and the T/C (endpoint: median tumor weight change, dose: 600.0 mg/kg/injection, schedule: Q01DX001 (ip), vehicle: water) was 78 % of control.
